Source: US20240417410A1, “TRICYCLIC COMPOUNDS FOR THE TREATMENT OF CANCER” (Hoffmann-La Roche Inc., priority 2023, published 2024)

Columns and labels:
[1] = tested on: NCI-H358 cells (KRAS G12C); experiment: Cell viability assay (Cell Counting Kit-8, 3-day); format: cell-based, human; details: Homo sapiens, NCI-H358, 72 h, NCI-H358, 72 hrs incubation
Procedure, shortened: (§1)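 After overnight attachment, cells received compounds (0.5% DMSO) for 72 hrs; viability was then quantified with CCK-8, reading OD450 minus OD650, and IC50 values were obtained from a 4-parameter concentration-response fit.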

AGS cells (KRAS G12D) = experiment: Cell viability assay (Cell Counting Kit-8, 3-day); format: cell-based, human; details: Homo sapiens, 72 h, 72 hrs incubation
Procedure, shortened: as §1

SW620 cells (KRAS G12V) = experiment: Cell viability assay (Cell Counting Kit-8, 3-day); format: cell-based, human; details: Homo sapiens, SW-620; SW620, 72 hrs incubation
Procedure, shortened: as §1

KRAS G12C-BRAF complex = KRAS G12C-BRAF complex (Homo sapiens (Human), UniProt P01116+P62937, G12C); experiment: KRAS-BRAF with CYPA (500 nM) interaction assay (TR-FRET, Example 136); format: biochemical; details: KRAS G12C-BRAF disruption
[2] = tested on: phosphorylation of ERK, KRAS G12C in NCI-H358 cells; experiment: pERK inhibition assay; format: cell-based; details: Homo sapiens, NCI-H358, 4 h
Procedure, shortened: (§2)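 Phospho-ERK quantified by in-cell ELISA with TMB read-out at OD450 following 4 h compound exposure (final 0.5% DMSO). Cell lines were SW620 (KRAS G12V), AGS (G12D) and NCI-H358 (G12C), grown in RPMI-1640 with 10% FBS. A 4-parameter sigmoidal model gave the IC50.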

[3] = tested on: phosphorylation of ERK, KRAS G12D in AGS cells; experiment: pERK inhibition assay; format: cell-based; details: Homo sapiens, AGS, 4 h
Procedure, shortened: as §2

[4] = tested on: phosphorylation of ERK, KRAS G12V in SW620; experiment: pERK inhibition assay; format: cell-based; details: Homo sapiens, SW-620, 4 h, SW620 cells
Procedure, shortened: as §2

KRAS G12C-BRAF complex, sequence (P01116-2 other isoform, or with tags, fused parts or gaps G12C): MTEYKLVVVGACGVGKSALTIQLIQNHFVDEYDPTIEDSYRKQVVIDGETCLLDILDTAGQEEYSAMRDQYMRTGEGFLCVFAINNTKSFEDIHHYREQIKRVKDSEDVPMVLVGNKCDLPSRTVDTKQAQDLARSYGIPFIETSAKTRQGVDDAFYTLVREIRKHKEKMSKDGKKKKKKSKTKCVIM
KRAS G12C-BRAF complex, sequence (P62937 whole entry): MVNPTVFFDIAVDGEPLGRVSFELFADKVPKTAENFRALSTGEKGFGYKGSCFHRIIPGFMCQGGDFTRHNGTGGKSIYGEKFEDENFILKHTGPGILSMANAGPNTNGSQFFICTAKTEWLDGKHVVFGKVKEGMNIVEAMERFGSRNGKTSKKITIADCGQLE

Row | Compound | IC50 [1] [nM] | IC50 (AGS cells (KRAS G12D)) [nM] | IC50 (SW620 cells (KRAS G12V)) [nM] | IC50 (KRAS G12C-BRAF complex) [nM] | IC50 [2] [nM] | IC50 [3] [nM] | IC50 [4] [nM]
1 | CO[C@@H](C)c1ncc(N2CCN(C)CC2)cc1-c1c2c3cc(cc4c3n1CCC4)-c1csc(n1)C[C@H](NC(=O)[C@@H]1C[C@H]1c1cncnc1C)C(=O)N1CCC[C@H](N1)C(=O)OCC(C)(C)C2 (atropisomer, axis not shown; (M)) [Example 112, (1R,2R)-N-[(7S,13S)-(20M)-20-[2-[(1S)-1-methoxyethyl]-5-(4-methylpiperazin-1-yl)-3-pyridyl]-17,17-dimethyl-8,14-dioxo-15-oxa-4-thia-9,21,30,31-tetrazahexacyclo[23.3.1.1^2,5.1^9,13.0^19,27.0^21,26]hentriaconta-1 (28),2,5 (31), 19,25 (29),26-hexaen-7-yl]-2-(4-methylpyrimidin-5-yl)cyclopropanecarboxamide] | 2.2 | 3.4 | 0.8 | 10.4 | 0.7 | 3.4 | 0.5
2 | CO[C@@H](C)c1ncc(N2CCNCC2)cc1-c1c2c3cc(cc4c3n1CCC4)-c1csc(n1)C[C@H](NC(=O)[C@H]1[C@H](C)[C@@H]1C)C(=O)N1CCC[C@H](N1)C(=O)OCC(C)(C)C2 (atropisomer, axis not shown; (M)) [Example 108, (1r,2R,3S)-N-[(7S,13S)-(20M)-20-[2-[(1S)-1-methoxyethyl]-5-piperazin-1-yl-3-pyridyl]-17,17-dimethyl-8,14-dioxo-15-oxa-4-thia-9,21,30,31-tetrazahexacyclo[23.3.1.1^2,5.1^9,13.0^19,27.0^21,26]hentriaconta-1 (28),2,5 (31), 19,25 (29),26-hexaen-7-yl]-2,3-dimethyl-cyclopropanecarboxamide] | 2.2 | 1.8 | 0.5 | 4.6 | 1.8 | 3.9 | 0.5
3 | CO[C@@H](C)c1ncc(N2CCN(CC(F)(F)F)CC2)cc1-c1c2c3cc(cc4c3n1CCO4)-c1csc(n1)C[C@H](NC(=O)[C@H]1[C@@H]3COC[C@@H]31)C(=O)N1CCC[C@H](N1)C(=O)OCC(C)(C)C2 (atropisomer, axis not shown; (M)) [Example 12, (1S,5R,6r)-N-[(7S,13S)-(20M)-20-[2-[(1S)-1-methoxyethyl]-5-[4-(2,2,2-trifluoroethyl)piperazin-1-yl]-3-pyridyl]-17,17-dimethyl-8,14-dioxo-15,24-dioxa-4-thia-9,21,30,31-tetrazahexacyclo[23.3.1.1^2,5.1^9,13.0^19,27.0^21,26]hentriaconta-1 (28),2,5 (31),19,25 (29),26-hexaen-7-yl]-3-oxabicyclo[3.1.0]hexane-6-carboxamide] | 12.5 | 25 | 2 | 12 | 3.8 | 2.2 | 1.2
4 | CO[C@@H](C)c1ncc(N2CCN(C)CC2)cc1-c1c2c3cc(cc4c3n1CCC4)-c1csc(n1)C[C@H](NC(=O)[C@H]1C[C@@H]1c1cccnc1)C(=O)N1CCC[C@H](N1)C(=O)OCC(C)(C)C2 (atropisomer, axis not shown; (M)) [Example 56, (1S,2S)-N-[(7S,13S)-(20M)-20-[2-[(1S)-1-methoxyethyl]-5-(4-methylpiperazin-1-yl)-3-pyridyl]-17,17-dimethyl-8,14-dioxo-15-oxa-4-thia-9,21,30,31-tetrazahexacyclo[23.3.1.1^2,5.1^9,13.0^19,27.0^21,26]hentriaconta-1 (28),2,5 (31), 19,25 (29),26-hexaen-7-yl]-2-(3-pyridyl)cyclopropanecarboxamide] | 1.2 | 5.2 | 0.3 | 10.3 | 0.8 | 2.7 | 0.6
5 | CO[C@@H](C)c1ncc(N2CCOCC2)cc1-c1c2c3cc(cc4c3n1CC(C)(C)O4)-c1csc(n1)C[C@H](NC(=O)[C@H]1[C@H](C)[C@@H]1C)C(=O)N1CCC[C@H](N1)C(=O)OCC(C)(C)C2 (atropisomer, axis not shown; (M)) [Example 61, (1r,2R,3S)-N-[(7S,13S)-(20M)-20-[2-[(1S)-1-methoxyethyl]-5-morpholino-3-pyridyl]-17,17,23,23-tetramethyl-8,14-dioxo-15,24-dioxa-4-thia-9,21,30,31-tetrazahexacyclo[23.3.1.1^2,5.1^9,13.0^19,27.0^21,26]hentriaconta-1 (28),2,5 (31), 19,25 (29),26-hexaen-7-yl]-2,3-dimethyl-cyclopropanecarboxamide] | 22.6 | 33.4 | 3 | 50.9 | 8.5 | 10.3 | 1.1
6 | CO[C@@H](C)c1ncc(N2CCOCC2)cc1-c1c2c3cc(cc4c3n1CC(F)(F)C4)-c1csc(n1)C[C@H](NC(=O)[C@H]1[C@H](C)[C@@H]1C)C(=O)N1CCC[C@H](N1)C(=O)OCC(C)(C)C2 (atropisomer, axis not shown; (M)) [Example 76, (1r,2S,3R)-N-[(7S,13S)-23,23-difluoro-(20M)-20-[2-[(1S)-1-methoxyethyl]-5-morpholino-3-pyridyl]-17,17-dimethyl-8,14-dioxo-15-oxa-4-thia-9,21,30,31-tetrazahexacyclo[23.3.1.1^2,5.1^9,13.0^19,27.0^21,26]hentriaconta-1 (28),2,5 (31), 19,25 (29),26-hexaen-7-yl]-2,3-dimethyl-cyclopropanecarboxamide] | 2.1 | 4.9 | 0.3 | 9.1 | 0.7 | 3.9 | 0.2
7 | CO[C@@H](C)c1ncc(N2CCOCC2)cc1-c1c2c3cc(cc4c3n1CCO4)-c1csc(n1)C[C@H](NC(=O)[C@H]1C[C@@H]1c1cccnc1)C(=O)N1CCC[C@H](N1)C(=O)OCC(C)(C)C2 (atropisomer, axis not shown; (M)) [Example 97, (1S,2S)-N-[(7S,13S)-(20M)-20-[2-[(1S)-1-methoxyethyl]-5-morpholino-3-pyridyl]-17,17-dimethyl-8,14-dioxo-15,24-dioxa-4-thia-9,21,30,31-tetrazahexacyclo[23.3.1.12.19,13 019,27 21,26,]hentriaconta-1 (28),2,5 (31), 19,25 (29),26-hexaen-7-yl]-2-(3-pyridyl)cyclopropanecarboxamide] | 1.9 | 2.6 | 0.3 | 14.4 | 0.4 | 1.4 | 0.3
8 | CO[C@@H](C)c1ncc(N2CCN(C3COC3)CC2)cc1-c1c2c3cc(cc4c3n1CCC4)-c1csc(n1)C[C@H](NC(=O)[C@H]1[C@H](C)[C@@H]1C)C(=O)N1CCC[C@H](N1)C(=O)OCC(C)(C)C2 (atropisomer, axis not shown; (M)) [Example 118, (1r,2R,3S)-N-[(7S,13S)-(20M)-20-[2-[(1S)-1-methoxyethyl]-5-[4-(oxetan-3-yl)piperazin-1-yl]-3-pyridyl]-17,17-dimethyl-8,14-dioxo-15-oxa-4-thia-9,21,30,31-tetrazahexacyclo[23.3.1.1^2,5.1^9,13.0^19,27.0^21,26]hentriaconta-1 (28),2,5 (31), 19,25 (29),26-hexaen-7-yl]-2,3-dimethyl-cyclopropanecarboxamide] | 1.1 | 1.3 | 0.2 | 13.5 | 0.7 | 3.5 | 0.3
9 | CO[C@@H](C)c1ncc(N2CCN(C[C@@H]3CNCCO3)CC2)cc1-c1c2c3cc(cc4c3n1CCC4)-c1csc(n1)C[C@H](NC(=O)[C@H]1[C@H](C)[C@@H]1C)C(=O)N1CCC[C@H](N1)C(=O)OCC(C)(C)C2 (atropisomer, axis not shown; (M)) [Example 119, (1r,2S,3R)-N-[(7S,13S)-(20M)-20-[2-[(1S)-1-methoxyethyl]-5-[4-[[(2S)-morpholin-2-yl]methyl]piperazin-1-yl]-3-pyridyl]-17,17-dimethyl-8,14-dioxo-15-oxa-4-thia-9,21,30,31-tetrazahexacyclo[23.3.1.1^2,5.1^9,13.0^19,27.0^21,26]hentriaconta-1 (28),2,5 (31),19,25 (29),26-hexaen-7-yl]-2,3-dimethyl-cyclopropanecarboxamide] | 3.5 | 4.4 | 0.8 | 9.3 | 1.7 | 6.9 | 1.2
10 | CO[C@@H](C)c1ncc(N2CCN(C)CC2)cc1-c1c2c3cc(cc4c3n1CCC4)-c1csc(n1)C[C@H](NC(=O)[C@@H]1C[C@H]1C1CC1)C(=O)N1CCC[C@H](N1)C(=O)OCC(C)(C)C2 (atropisomer, axis not shown; (M)) [Example 16, (1R,2S)-2-cyclopropyl-N-[(7S,13S)-(20M)-20-[2-[(1S)-1-methoxyethyl]-5-(4-methylpiperazin-1-yl)-3-pyridyl]-17,17-dimethyl-8,14-dioxo-15-oxa-4-thia-9,21,30,31-tetrazahexacyclo[23.3.1.1^2,5.1^9,13.0^19,27.0^21,26]hentriaconta-1 (28),2,5 (31),19,25 (29),26-hexaen-7-yl]cyclopropanecarboxamide] | 7.3 | 25.9 | 1.6 | 10.2 | 4.6 | 2.6 | 2.8
